Data taken from US8846694B2, “Pyrrolidone derivatives for use as MetAP-2 inhibitors” (Merck Patent GmbH, priority 2008, dated 2014).
≈ marks a conversion by molar mass, not a printed value.

Biological target: MetAP-2 (Homo sapiens, UniProt P50579)
Experiment: MetAP-2 activity measurement (coupled enzymatic reactions, substrate Met-Arg-Ser, photometric at 450 nm)
Assay type: biochemical
Conditions: read-out: IC50 enzyme (Inhibition of MetAP-2)
Outline: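 Human MetAP-2 cleaves Met-Arg-Ser; the freed methionine is oxidized by L-amino acid oxidase, and the resulting H2O2 drives peroxidase oxidation of dianisidine, read continuously at 450 nm. Activity is taken as the slope in the visually linear region.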

Chain of MetAP-2 (P50579 whole entry, species assumed): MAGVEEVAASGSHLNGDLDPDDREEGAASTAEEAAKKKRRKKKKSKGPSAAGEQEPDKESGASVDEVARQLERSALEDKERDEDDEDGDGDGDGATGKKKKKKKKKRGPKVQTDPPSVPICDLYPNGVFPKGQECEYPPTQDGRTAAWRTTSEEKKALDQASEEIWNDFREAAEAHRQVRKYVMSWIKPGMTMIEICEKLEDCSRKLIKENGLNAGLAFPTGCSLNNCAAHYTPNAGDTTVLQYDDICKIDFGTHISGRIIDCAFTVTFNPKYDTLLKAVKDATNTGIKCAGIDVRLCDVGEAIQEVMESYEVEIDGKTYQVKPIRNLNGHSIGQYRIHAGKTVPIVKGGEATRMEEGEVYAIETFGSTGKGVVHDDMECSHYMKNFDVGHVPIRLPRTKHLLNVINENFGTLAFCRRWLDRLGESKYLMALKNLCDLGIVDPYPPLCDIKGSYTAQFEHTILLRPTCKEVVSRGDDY

Question: For `O=Cc1ccc(OC[C@H]2CCCN2c2ncnc3[nH]cnc23)c2ccccc12` [A2, 4-[(R)-1-(9H-purin-6-yl)pyrrolidin-2-ylmethoxy]naphthalene-1-carbaldehyde], which IC50 is on record?
Answer: 0.01 to 1 µM

Question: Which IC50 does the source give for `O=C(CC1CCc2c(OC[C@H]3CCCN3c3ncnc4[nH]cnc34)cccc2C1=O)NCCO` (stereo partly drawn) [A180, N-(2-Hydroxyethyl)-2-{1-oxo-5-[(R)-1-(9H-purin-6-yl)pyrrolidin-2-ylmethoxy]-1,2,3,4-tetrahydro-naphthalen-2-yl}acetamide] here?
Answer: 0.01 to 1 µM

Question: Which IC50 does the source give for `CN(C)CCNc1ncc(OC[C@H]2CCCN2c2ncnc3[nH]cnc23)c2ccccc12` [A181, N,N-Dimethyl-N′-{4-[(R)-1-(9H-purin-6-yl)-pyrrolidin-2-ylmethoxy]isoquinolin-1-yl}ethane-1,2-diamine] here?
Answer: 0.01 to 1 µM

Question: For `CN(C)CCCNc1ncc(OC[C@H]2CCCN2c2ncnc3[nH]cnc23)c2ccccc12` [A182], which IC50 is on record?
Answer: 0.01 to 1 µM

Question: Which IC50 does the source give for `O=C(O)CC[C@H](NC(=O)O)C(=O)Nc1ccc2cccc(OC[C@H]3CCCN3c3ncnc4[nH]cnc34)c2c1` [A183, (S)-4-Carboxyamino-4-{8-[(R)-1-(9H-purin-6-yl)-pyrrolidin-2-ylmethoxy]naphthalen-2-yl-carbamoyl}butyric acid] here?
Answer: > 10 µM

Question: For `CCOC(=O)c1c(OC[C@H]2CCCN2c2ncnc3[nH]cnc23)c2cc(F)ccc2n1C` [A184, Ethyl 5-fIuoro-1-methyl-3-[(R)-1-(9H-purin-6-yl)-pyrrolidin-2-ylmethoxy]-1H-indole-2-carboxylate], which IC50 is on record?
Answer: > 10 µM

Question: Which IC50 does the source give for `CCOC(=O)Cn1c(C(=O)OCC)c(OC[C@H]2CCCN2c2ncnc3[nH]cnc23)c2cc(F)ccc21` [A185, Ethyl 1-ethoxycarbonylmethyl-5-fluoro-3-[(R)-1-(9H-purin-6-yl)pyrrolidin-2-ylmethoxy]-1H-indole-2-carboxylate] here?
Answer: > 10 µM

Question: Which IC50 does the source give for `O=C1OCCC1CCOc1ccc2cccc(OC[C@H]3CCCN3c3ncnc4[nH]cnc34)c2c1` (stereo partly drawn) [A186, 3-(2-{8-[(R)-1-(9H-Purin-6-yl)pyrrolidin-2-yl-methoxy]naphthalen-2-yloxy}ethyl)dihydrofuran-2-one] here?
Answer: 1 to 10 µM

Question: For `CC(C)(C)OC(=O)N[C@@H](CCC(N)=O)C(=O)N1CCc2cccc(OC[C@H]3CCCN3c3ncnc4[nH]cnc34)c2C1` [A187, tert-Butyl ((S)-3-carbamoyl-1-{8-[(R)-1-(9H-purin-6-yl)pyrrolidin-2-ylmethoxy]-3,4-dihydro-1H-isoquinoline-2-carbonyl}propyl)carbamate], which IC50 is on record?
Answer: 1 to 10 µM

Question: Which IC50 does the source give for `CC(C)(C)OC(=O)N[C@H](CC(N)=O)C(=O)N1CCc2cccc(OC[C@H]3CCCN3c3ncnc4[nH]cnc34)c2C1` [A188, tert-Butyl ((R)-1-carbamoylmethyl-2-oxo-2-{8-[(R)-1-(9H-purin-6-yl)pyrrolidin-2-ylmethoxy]-3,4-dihydro-1H-isoquinolin-2-yl}ethyl)carbamate] here?
Answer: 1 to 10 µM

Question: Which IC50 does the source give for `CC(C)(C)OC(=O)N[C@@H](Cc1c[nH]cn1)C(=O)N1CCc2cccc(OC[C@H]3CCCN3c3ncnc4[nH]cnc34)c2C1` [A189, tert-Butyl ((S)-1-(1H-imidazol-4-ylmethyl)-2-oxo-2-{8-[(R)-1-(9H-purin-6-yl)pyrrolidin-2-yl-methoxy]-3,4-dihydro-1H-isoquinolin-2-yl}ethyl)-carbamate] here?
Answer: 1 to 10 µM

Question: With `Cn1c(C(=O)O)c(OC[C@H]2CCCN2c2ncnc3[nH]cnc23)c2cc(F)ccc21` [A190, 5-Fluoro-1-methyl-3-[(R)-1-(9H-purin-6-yl)-pyrrolidin-2-ylmethoxy]-1H-indole-2-carboxylic acid] as the compound, how does the IC50 read?
Answer: > 10 µM

Question: For `c1ccc2c(OC[C@H]3CCCN3c3ncnc4[nH]cnc34)cc(CNCCN3CCOCC3)nc2c1` [A191, (2-Morpholin-4-ylethyl)-{4-[(R)-1-(9H-purin-6-yl)pyrrolidin-2-ylmethoxy]quinolin-2-yl-methyl}amine], which IC50 is on record?
Answer: 0.01 to 1 µM

Question: Which IC50 does the source give for `O=C1CC[C@@H](C(=O)N2CCc3cccc(OC[C@H]4CCCN4c4ncnc5[nH]cnc45)c3C2)N1` [A192, (S)-5-{8-[(R)-1-(9H-Purin-6-yl)pyrrolidin-2-yl-methoxy]-3,4-dihydro-1H-isoquinoline-2-carbonyl}pyrrolidin-2-one] here?
Answer: 0.01 to 1 µM

Question: For `CC(C)(C)OC(=O)NCCCC[C@H](NC(=O)OCc1ccccc1)C(=O)N1CCc2cccc(OC[C@H]3CCCN3c3ncnc4[nH]cnc34)c2C1` [A193, tert-Butyl ((S)-5-benzyloxycarbonylamino-6-oxo-6-{8-[(R)-1-(9H-purin-6-yl)pyrrolidin-2-yl-methoxy]-3,4-dihydro-1H-isoquinolin-2-yl}hexyl)-carbamate], which IC50 is on record?
Answer: > 10 µM

Question: For `NC(=O)C[C@@H](N)C(=O)N1CCc2cccc(OC[C@H]3CCCN3c3ncnc4[nH]cnc34)c2C1` [A194, (R)-3-Amino-4-oxo-4-{8-[(R)-1-(9H-purin-6-yl)-pyrrolidin-2-ylmethoxy]-3,4-dihydro-1H-isoquinolin-2-yl}butyramide], which IC50 is on record?
Answer: 0.01 to 1 µM

Question: For `N[C@@H](Cc1c[nH]cn1)C(=O)N1CCc2cccc(OC[C@H]3CCCN3c3ncnc4[nH]cnc34)c2C1` [A195, (S)-2-Amino-3-(1H-imidazol-4-yl)-1-{8-[(R)-1-(9H-purin-6-yl)pyrrolidin-2-ylmethoxy]-3,4-dihydro-1H-isoquinolin-2-yl}propan-1-one], which IC50 is on record?
Answer: 0.01 to 1 µM

Question: With `O=C(O)CCCCOc1ccc2cccc(OC[C@H]3CCCN3c3ncnc4[nH]cnc34)c2c1` [A196, 5-{8-[(R)-1-(9H-Purin-6-yl)pyrrolidin-2-yl-methoxy]naphthalen-2-yloxy}pentanoic acid] as the compound, how does the IC50 read?
Answer: > 10 µM

Question: Which IC50 does the source give for `Cn1c(C(=O)NCc2ccc(F)cc2)c(OC[C@H]2CCCN2c2ncnc3[nH]cnc23)c2cc(F)ccc21` [A197, N-(4-Fluorobenzyl)-5-fluoro-1-methyl-3-[(R)-1-(9H-purin-6-yl)pyrrolidin-2-ylmethoxy]-1H-indole-2-carboxamide] here?
Answer: > 10 µM

Question: With `Cn1c(C(=O)OCCc2ccc(F)cc2)c(OC[C@H]2CCCN2c2ncnc3[nH]cnc23)c2cc(F)ccc21` [A198, 2-(4-Fluorophenyl)ethyl 5-fluoro-1-methyl-3-[(R)-1-(9H-purin-6-yl)pyrrolidin-2-ylmethoxy]-1H-indole-2-carboxylate] as the compound, how does the IC50 read?
Answer: > 10 µM

Question: Which IC50 does the source give for `NCCCC[C@H](NC(=O)OCc1ccccc1)C(=O)N1CCc2cccc(OC[C@H]3CCCN3c3ncnc4[nH]cnc34)c2C1` [A199, Benzyl ((S)-5-amino-1-{8-[(R)-1-(9H-purin-6-yl)-pyrrolidin-2-ylmethoxy]-3,4-dihydro-1H-isoquinolin-2-carbonyl}pentyl)carbamate] here?
Answer: 1 to 10 µM

Question: With `O=C(Cn1c(C(=O)NCCc2ccc(F)cc2)c(OC[C@H]2CCCN2c2ncnc3[nH]cnc23)c2cc(F)ccc21)NCCc1ccc(F)cc1` [A200, N-[2-(4-Fluorophenyl)ethyl]-5-fluoro-1-{[2-(4-fluorophenyl)ethylcarbamoyl]methyl}-3-[(R)-1-(9H-purin-6-yl)pyrrolidin-2-ylmethoxy]-1H-indole-2-carboxamide] as the compound, how does the IC50 read?
Answer: > 10 µM

Question: With `NC(=O)C[C@H](N)C(=O)N1CCc2cccc(OC[C@H]3CCCN3c3ncnc4[nH]cnc34)c2C1` [A201, (S)-3-Amino-4-oxo-4-{8-[(R)-1-(9H-purin-6-yl)-pyrrolidin-2-ylmethoxy]-3,4-dihydro-1H-isoquinolin-2-yl}butyramide] as the compound, how does the IC50 read?
Answer: 1 to 10 µM

Question: With `NC(=O)CCC(=O)N1CCc2cccc(OC[C@H]3CCCN3c3ncnc4[nH]cnc34)c2C1` [A202, 4-Oxo-4-{8-[(R)-1-(9H-purin-6-yl)pyrrolidin-2-yl-methoxy]-3,4-dihydro-1H-isoquinolin-2-yl}-butyramide] as the compound, how does the IC50 read?
Answer: 1 to 10 µM

Question: With `Fc1ccc(CCNCCn2cc(OC[C@H]3CCCN3c3ncnc4[nH]cnc34)c3cc(F)ccc32)cc1` [A203, [2-(4-Fluorophenyl)ethyl]-(2-{5-fluoro-3-[(R)-1-(9H-purin-6-yl)pyrrolidin-2-ylmethoxy]indol-1-yl}-ethyl)amine] as the compound, how does the IC50 read?
Answer: > 10 µM

Test system: not listed separately
Experiment: Shake flask solubility measurement
Assay type: physicochemical
Conditions: shake flask, buffer; shaken at 37° C. for 24 h
Procedure: Determination by Shake Flask Solubility Measurement
• Eluent A: 2 ml of diethylamine, for synthesis+1000 ml of methanol, LiChrosolv • Eluent B: 5 g of ammonium acetate, for analysis+5 ml of methanol, LiChrosolv+995 ml of ultrapure water Sample Solvent:
Buffer: 3.954 g of sodium dihydrogenphosphate monohydrate+6.024 g of sodium chloride+950 ml of ultrapure water the pH is adjusted using 0.1 M NaOH or 0.1 M HCl.
The samples are shaken at 37° C. and 450 rpm for 24 h.
After about 7 h, the pH of the samples is checked and adjusted if necessary. It is also checked whether the sample is still present in excess.
Just before the end of the 24 h shaking time, the samples are again checked for pH and a precipitate.

Question: With `CC(O)CNC(=O)c1cc(OC[C@H]2CCCN2c2ncnc3[nH]cnc23)c2ccccc2n1` (stereo partly drawn) as the compound, how does the solubility read?
Answer: 325 µg/mL (≈ 726 µM)

Question: Which solubility does the source give for `Clc1cccc(OC[C@H]2CCCN2c2ncnc3[nH]cnc23)c1Cl` [6-[(R)-2-(2,3-dichlorophenoxymethyl)pyrrolidin-yl]-9H-purine, reference compound] here?
Answer: < 1 µg/mL

Same assay, conditions: sodium phosphate/sodium chloride buffer, aqueous buffer, thermodynamic from solid; buffer system at pH 7; shaken at 37° C. for 24 h

Question: With `c1ccc2c(OC[C@H]3CCCN3c3ncnc4[nH]cnc34)ccc(CNCCN3CCOCC3)c2c1` [(2-morpholin-4-ylethyl)-{4-[(R)-1-(9H-purin-6-yl)pyrrolidin-2-ylmethoxy]naphthalen-1-ylmethyl}amine] as the compound, how does the solubility at 24 h read?
Answer: 283 µg/mL (≈ 580 µM)

Same assay, conditions: sodium phosphate/sodium chloride buffer, aqueous buffer, thermodynamic from solid; shake flask, buffer; shaken at 37° C. for 24 h

Question: Which solubility at 24 h does the source give for `O=C(c1ccc(CC[C@H]2CCCN2c2ncnc3[nH]cnc23)c2ccccc12)N1CCOCC1` [Morpholin-4-yl-(4-{2-[(S)-1-(9H-purin-6-yl)pyrrolidin-2-yl]ethyl}naphthalen-1-yl)-methanone] here?
Answer: 108 µg/mL (≈ 237 µM)

Question: With `CNC(=O)/C=C1/CCc2c(OC[C@H]3CCCN3c3ncnc4[nH]cnc34)cccc2C1=O` [N-methyl-2-[1-oxo-5-[(R)-1-(9H-purin-6-yl)pyrrolidin-2-ylmethoxy]-3,4-dihydro-1H-naphthalen-(2Z)-ylidene]acetamide] as the compound, how does the solubility at 24 h read?
Answer: 29 µg/mL (≈ 67.1 µM)

Question: With `O=C(O)/C=C1/CCc2c(OC[C@H]3CCCN3c3ncnc4[nH]cnc34)cccc2C1=O` [[1-oxo-5-[(R)-1-(9H-purin-6-yl)pyrrolidin-2-ylmethoxy]-3,4-dihydro-1H-naphthalen-(2Z)-ylidene]acetic acid] as the compound, how does the solubility at 24 h read?
Answer: > 3800 µg/mL

Test system: not given
Experiment: not given
Conditions: not given

Question: For `O=C(c1ccc(CCC2CCCN2c2ncnc3[nH]cnc23)c2ccccc12)N1CCOCC1` (racemic) [A6, morpholin-4-yl-(4-{2-[-1-(9H-purin-6-yl)pyrrolidin-2-yl]ethyl}naphthalen-1-yl)methanone], which melting point is on record?
Answer: 158 to 160 °C

Question: Which melting point does the source give for `O=Cc1ccc(OC[C@H]2CCCN2c2ncnc3[nH]cnc23)c2ccccc12` [A2, 4-[(R)-1-(9H-purin-6-yl)pyrrolidin-2-ylmethoxy]naphthalene-1-carbaldehyde] here?
Answer: 167 to 168 °C
